Tests used:
[1] = prevents clinical use in human treatment; cited from earlier work
prostate tumor cell = details: both in vitro and in vivo; cited from earlier work
[2] = tested on: PSA mRNA in parental LNCaP cells; test: PSA gene expression, Northern analysis of PSA mRNA; format: cell-based, human; details: for Relative PSA mRNA level: 48 h, control defined as 1.0; for steady-state levels of PSA mRNA: parental LNCaP cells, result in words
Description: FIG. 6A. The effect of PSA gene expression in parental LNCaP cells treated with a variety of growth factors. The parental LNCaP cells were incubated with agents as indicated (control cells were incubated with T medium containing 2% TCM). Forty-eight hours after treatment, total cellular RNA was prepared and 20 μg of total cellular RNA was subjected to Northern analysis. Relative PSA mRNA levels (in parenthesis) were determined by densitometrical quantification, and the control is defined as 1.0; (A) TGF-α 100 (0.98); TGF-α 10 (1.01); TGF-α 1 (1.15); bFGF 100 (1.22); bFGF 10 (1.04); bFGF 1 (0.97); TGF-β 0.01 (0.72); TGF-β 0.1 (0.84); TGF-β 1 (0.53); NGF 1 (1.13); NGF 100 (1.08),
FIG. 6B. The effect of PSA gene expression in parental LNCaP cells treated with a neuropeptide and a variety of α1 and β2-adrenergic agonists. I, bombesin 100 (0.62); bombesin 10 (0.89); II. isoproterenol 100 (0.51); isoproterenol 10 (1.11); isoproterenol 1 (1.07); III. dibutyryl cAMP 0.01 (1.09); dibutyryl cAMP 0.1 (1.11); dibutyryl cAMP 1.0 (1.23); IV. phenylephrine 1 (1.10); phenylephrine 10 (1.08); phenylephrine 100 (1.14).
Total cellular RNA was prepared from frozen tissues by the 4M guanidinium thiocyanate extraction method (Chomcjymski & Sacchi, 1987). Typical yields of total cellular RNA were about 300 μg/200 mg tissue as quantified spectrophotometrically using 40 μg RNA/A260 unit. RNA was denatured in 50% formamide/18% formaldehyde at 55° C. and fractionated by electrophoresis in a 0.9% denaturing formaldehyde agarose gel. Samples were transferred onto a Zetaprobe membrane (Bio-Rad) by capillary method, and the membrane was then baked for 2 hours at 80° C. The membrane was then prehybridized in the presence of 1M NaCl, 10% dextran sulfate, 1% SDS, and 200 μg/ml salmon sperm DNA for at least 2 hours at 65° C. Hybridization was carried out at 65° C. overnight with a random-primer-labeled probe as indicated. The PSA cDNA, and sequence specific hGK-1 and PSA oligonucleotide probes were obtained from Dr. D. Tindall (Mayo Clinic, Rochester, Minn.) (Lundwall & Lilja, 1987). Finally, the membrane was washed under high stringency conditions (0.5×SSC, 1% SDS at 65° C.). Autoradiograms were prepared by exposing Kodak X-Omat AR film to the membrane at -80° C. with intensifying screens.

Q: Which toxicity in vivo [1] does the source give for Cc1ccc(C(=O)Nc2ccc(S(=O)(=O)O)c3cc(S(=O)(=O)O)cc(S(=O)(=O)O)c23)cc1NC(=O)c1cccc(NC(=O)Nc2cccc(C(=O)Nc3cc(C(=O)Nc4ccc(S(=O)(=O)O)c5cc(S(=O)(=O)O)cc(S(=O)(=O)O)c45)ccc3C)c2)c1 [suramin] here?
A: extreme toxicity

Q: What about the “prostate tumor cell growth” value (prostate tumor cell) of the same molecule?
A: inhibit prostate tumor cell growth

Q: Which results are given for CC(C)NCC(O)c1ccc(O)c(O)c1 (centres unmarked) [isoproterenol]?
A: Relative PSA mRNA level ([2]; concentration 1 (unit not given)): 1.07; Relative PSA mRNA level ([2]; concentration 10 (unit not given)): 1.11; Relative PSA mRNA level ([2]; concentration 100 (unit not given)): 0.51; steady-state levels of PSA mRNA [2]: no apparent increases

Q: For CNC[C@H](O)c1cccc(O)c1 [phenylephrine], which “steady-state levels of PSA mRNA” value [2] is on record?
A: no apparent increases

Q: For CCCC(=O)Nc1ncnc2c1ncn2[C@@H]1O[C@@H]2COP(=O)(O)O[C@H]2[C@H]1OC(=O)CCC [dibutyryl cAMP], which “Relative PSA mRNA level” value ([2]; concentration 0.01 (unit not given)) is on record?
A: 1.09

Q: What about the “Relative PSA mRNA level” value ([2]; concentration 0.1 (unit not given)) of the same molecule?
A: 1.11

Q: What about the “Relative PSA mRNA level” value ([2]; concentration 1.0 (unit not given)) of the same molecule?
A: 1.23

Q: And the “steady-state levels of PSA mRNA” value [2]?
A: no apparent increases
